Test results: patent publication US12528812B2 (Genentech, Inc., priority 2020, dated 2026)
pIC50, pKi: −log10 of the molar value. Read-outs that look alike come from different tables or passages of the source.

What was measured:
[1] = target: T1, recombinant human JAK1 kinase domain protein (Residues 854-1154) (Homo sapiens, UniProt P23458); assay: JAK1 biochemical assay (LabChip mobility shift, Ki); settings: read-out: Biochem JAK1 Ki
T1 construct: human JAK1 kinase domain protein (Residues 854-1154); purchased Proteros Biostructures GmbH (Martinsried, Germany); host or cells: insect cells
T1 sequence (P23458 854-1154): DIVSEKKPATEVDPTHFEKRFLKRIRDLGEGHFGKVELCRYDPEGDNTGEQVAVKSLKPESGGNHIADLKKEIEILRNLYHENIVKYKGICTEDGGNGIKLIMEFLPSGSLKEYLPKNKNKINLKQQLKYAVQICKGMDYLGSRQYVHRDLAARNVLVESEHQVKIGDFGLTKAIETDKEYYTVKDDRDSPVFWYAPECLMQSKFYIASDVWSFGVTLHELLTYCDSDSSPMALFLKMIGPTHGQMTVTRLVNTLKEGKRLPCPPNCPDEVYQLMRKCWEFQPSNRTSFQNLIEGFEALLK

[2] = target: Recombinant human JAK2 kinase domain protein (Residues 812-1132) (Homo sapiens, UniProt O60674); assay: JAK2 biochemical assay (LabChip mobility shift, Ki); settings: Biochem JAK2 Ki
Recombinant human JAK2 kinase domain protein (Residues 812-1132), sequence (O60674 812-1132): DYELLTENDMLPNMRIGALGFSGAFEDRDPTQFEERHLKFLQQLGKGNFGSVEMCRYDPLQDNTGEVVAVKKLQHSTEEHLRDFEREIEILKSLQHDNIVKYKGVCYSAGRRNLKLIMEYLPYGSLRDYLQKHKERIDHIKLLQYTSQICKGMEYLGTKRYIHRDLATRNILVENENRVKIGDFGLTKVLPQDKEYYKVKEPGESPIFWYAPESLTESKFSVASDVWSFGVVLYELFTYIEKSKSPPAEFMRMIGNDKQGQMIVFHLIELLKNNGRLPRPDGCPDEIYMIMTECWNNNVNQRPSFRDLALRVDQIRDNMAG

[3] = test system: IL-13-stimulated STAT6 phosphorylation in human lung bronchial epithelial BEAS-2B cell line; assay: P-STAT6 BEAS-2B + IL-13 cell assay; assay type: cell-based; settings: BEAS2B cells, IL13 stimulation, read-out: Cellular JAK1 PSTAT6 BEAS2B + IL13
In short: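 Phospho-STAT6 (Tyr641) was quantified in lysates by MSD electrochemiluminescence after human IL-13 challenge (250 ng/mL stock, 15 min, 37 °C). Before that, BEAS-2B cells cultured 48 h had 1 h compound exposure over 10 concentrations. Percent of control was fitted to a four-parameter logistic model to give IC50.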

SMILES	pKi [1]	pKi [2]	pIC50 ([3]; Homo sapiens, BEAS-2B)	pIC50 [3]
NCc1cc(Oc2ccc(OC(F)F)c(-c3n[nH]cc3NC(=O)c3cnn4cccnc34)c2)ccc1F [Example 19, N-[3-[5-[3-(aminomethyl)-4-fluoro-phenoxy]-2-(difluoromethoxy)phenyl]-1H-pyrazol-4-yl]pyrazolo[1,5-a]pyrimidine-3-carboxamide]	9.41	9.55	7.31	–
Cn1cc(NC(=O)c2cnn3cccnc23)c(-c2cc(Oc3ccc(CN4CCC[C@@H]4CO)cc3)ccc2OC(F)F)n1 (racemic) [Example 171, N-[3-[2-(difluoromethoxy)-5-[4-[[rac-(2R)-2-(hydroxymethyl)pyrrolidin-1-yl]methyl]phenoxy]phenyl]-1-methyl-pyrazol-4-yl]pyrazolo[1,5-a]pyrimidine-3-carboxamide]	8.72	9.02	7.30	–
CNCCn1cc(NC(=O)c2cnn3cccnc23)c(-c2cc(Oc3ccccc3)ccc2OC(F)F)n1 [Example 26, N-[3-[2-(difluoromethoxy)-5-phenoxy-phenyl]-1-[2 (methylamino)ethyl]pyrazol-4-yl]pyrazolo[1,5-a]pyrimidine-3-carboxamide]	9.60	9.39	7.92	–
O=C(Nc1cn(C2COC2)nc1-c1cc(Oc2ccccc2)ccc1OC(F)F)c1cnn2cccnc12 [Example 56, N-[3-[2-(difluoromethoxy)-5-phenoxy-phenyl]-1-(oxetan-3-yl)pyrazol-4-yl]pyrazolo[1,5-a]pyrimidine-3-carboxamide]	9.46	9.60	7.82	–
NCc1ccnn1-c1cccc(Oc2ccc(OC(F)F)c(-c3n[nH]cc3NC(=O)c3cnn4cccnc34)c2)c1 [Example 65, N-[3-[5-[3-[5-(aminomethyl)pyrazol-1-yl]phenoxy]-2-(difluoromethoxy)phenyl]-1H-pyrazol-4-yl]pyrazolo[1,5-a]pyrimidine-3-carboxamide]	9.07	9.20	6.92	–
Cn1cc(NC(=O)c2cnn3cccnc23)c(-c2cc(Oc3cnn(C4CCC4O)c3)ccc2OC(F)F)n1 (stereo not drawn) [Example 134, N-[3-[2-(difluoromethoxy)-5-[1-(2-hydroxycyclobutyl)pyrazol-4-yl]oxy-phenyl]-1-methyl-pyrazol-4-yl]pyrazolo[1,5-a]pyrimidine-3-carboxamide]	9.38	9.59	7.80	–
Cn1cc(NC(=O)c2cnn3cccnc23)c(-c2cc(Oc3ccc(CN4CC[C@@H](CO)C4)cc3)ccc2OC(F)F)n1 (racemic) [Example 172, N-[3-[2-(difluoromethoxy)-5-[4-[[rac-(3R)-3-(hydroxymethyl)pyrrolidin-1-yl]methyl]phenoxy]phenyl]-l-methyl-pyrazol-4-yl]pyrazolo[1,5-a]pyrimidine-3-carboxamide]	8.21	8.85	6.82	–
Cn1cc(NC(=O)c2cnn3cccnc23)c(-c2cc(Oc3cc(CNCCO)ccc3F)ccc2OC(F)F)n1 [Example 91, N-[3-[2-(difluoromethoxy)-5-[2-fluoro-5-[(2-hydroxyethylamino)methyl]phenoxy]phenyl]-1-methyl-pyrazol-4-yl]pyrazolo[1,5-a]pyrimidine-3-carboxamide]	9.49	9.40	7.77	–
Cn1cc(NC(=O)c2cnn3cccnc23)c(-c2cc(Oc3cnn(CC4(O)CN5CCC4CC5)c3)ccc2OC(F)F)n1 (stereo not drawn) [Example 200, N-[3-[2-(difluoromethoxy)-5-[1-[(3-hydroxyquinuclidin-3-yl)methyl]pyrazol-4-yl]oxy-phenyl]-1-methyl-pyrazol-4-yl]pyrazolo[1,5-a]pyrimidine-3-carboxamide]	8.44	8.80	–	6.11
CN1CCN(C(=O)Cn2cc(Oc3ccc(OC(F)F)c(-c4nn(C)cc4NC(=O)c4cnn5cccnc45)c3)cn2)CC1 [Example 90, N-[3-[2-(difluoromethoxy)-5-[1-[2-(4-methylpiperazin-1-yl)-2-oxo-ethyl]pyrazol-4-yl]oxy-phenyl]-1-methyl-pyrazol-4-yl]pyrazolo[1,5-a]pyrimidine-3-carboxamide]	9.23	9.51	7.28	–
CCn1cc(NC(=O)c2cnn3cccnc23)c(-c2cc(Oc3cc(F)cc(C4(O)CN(C)C4)c3)ccc2OC(F)F)n1 [Example 107, N-[3-[2-(difluoromethoxy)-5-[3-fluoro-5-(3-hydroxy-1-methyl-azetidin-3-yl)phenoxy]phenyl]-1-ethyl-pyrazol-4-yl]pyrazolo[1,5-a]pyrimidine-3-carboxamide]	9.37	9.31	7.43	–
CN1CC(n2cc(Oc3ccc(OC(F)F)c(-c4nn(C)cc4NC(=O)c4cnn5cccnc45)c3)cn2)C1 [Example 115, N-[3-[2-(difluoromethoxy)-5-[1-(1-methylazetidin-3-yl)pyrazol-4-yl]oxy-phenyl]-1-methyl-pyrazol-4-yl]pyrazolo[1,5-a]pyrimidine-3-carboxamide]	8.52	8.80	7.32	–
N#CCc1ccc(Oc2ccc(OC(F)F)c(-c3n[nH]cc3NC(=O)c3cnn4cccnc34)c2)cc1 [Example 8, N-[3-[5-[4-(cyanomethyl)phenoxy]-2-(difluoromethoxy)phenyl]-1H-pyrazol-4-yl]pyrazolo[1,5-a]pyrimidine-3-carboxamide]	9.74	9.85	8.12	–
Cn1cc(NC(=O)c2cnn3cccnc23)c(-c2cc(Oc3cnn(C4CC(O)C4)c3)ccc2OC(F)F)n1 (stereo not drawn) [Example 119, N-[3-[2-(difluoromethoxy)-5-[1-(3-hydroxycyclobutyl)pyrazol-4-yl]oxy-phenyl]-1-methyl-pyrazol-4-yl]pyrazolo[1,5-a]pyrimidine-3-carboxamide]	9.05	9.28	–	7.39
Cn1cc(NC(=O)c2cnn3cccnc23)c(-c2cc(Oc3ccc(CN4CCOCC4)cc3)ccc2OC(F)F)n1 [Example 61, N-[3-[2-(difluoromethoxy)-5-[4-(morpholinomethyl)phenoxy]phenyl]-1-methyl-pyrazol-4-yl]pyrazolo[1,5-a]pyrimidine-3-carboxamide]	8.29	8.54	6.89	–
CC(C)(C#N)c1ccc(Oc2ccc(OC(F)F)c(-c3n[nH]cc3NC(=O)c3cnn4cccnc34)c2)cc1 [Example 67, N-[3-[5-[4-(1-cyano-1-methyl-ethyl)phenoxy]-2-(difluoromethoxy)phenyl]-1H-pyrazol-4-yl]pyrazolo[1,5-a]pyrimidine-3-carboxamide]	8.68	8.92	7.60	–
CN(C)CCN(C)C(=O)c1cccc(Oc2ccc(OC(F)F)c(-c3nn(C)cc3NC(=O)c3cnn4cccnc34)c2)c1 [Example 206, N-[3-[2-(difluoromethoxy)-5-[3-[2-(dimethylamino)ethyl-methyl-carbamoyl]phenoxy]phenyl]-1-methyl-pyrazol-4-yl]pyrazolo[1,5-a]pyrimidine-3-carboxamide]	9.05	9.06	7.35	–
CN(C)C(=O)c1cccc(Oc2ccc(OC(F)F)c(-c3nn(C)cc3NC(=O)c3cnn4cccnc34)c2)c1 [Example 62, N-[3-[2-(difluoromethoxy)-5-[3-(dimethylcarbamoyl)phenoxy]phenyl]-1-methyl-pyrazol-4-yl]pyrazolo[1,5-a]pyrimidine-3-carboxamide]	9.46	9.62	7.85	–
Cc1ccc(Oc2ccc(OC(F)F)c(-c3nn(CCN[C@H]4CCOC4)cc3NC(=O)c3cnn4cccnc34)c2)cc1C(=O)N(C)C (racemic) [Example 58, N-[3-[2-(difluoromethoxy)-5-[3-(dimethylcarbamoyl)-4-methyl-phenoxy]phenyl]-1-[2-[[rac-(3R)-tetrahydrofuran-3-yl]amino]ethyl]pyrazol-4-yl]pyrazolo[1,5-a]pyrimidine-3-carboxamide]	8.92	9.15	7.48	–
Cn1cc(NC(=O)c2cnn3cccnc23)c(-c2cc(Oc3cc(C4CC4)cc(C4(O)CNC4)c3)ccc2OC(F)F)n1 [Example 109, N-[3-[5-[3-cyclopropyl-5-(3-hydroxyazetidin-3-yl)phenoxy]-2-(difluoromethoxy)phenyl]-1-methyl-pyrazol-4-yl]pyrazolo[1,5-a]pyrimidine-3-carboxamide]	9.06	9.24	6.60	–
Cc1ccc(Oc2ccc(OC(F)F)c(-c3nn(C)cc3NC(=O)c3cnn4cccnc34)c2)cc1C(=O)N1CCNCC1 [Example 54, N-[3-[2-(difluoromethoxy)-5-[4-methyl-3-(piperazine-1-carbonyl)phenoxy]phenyl]-1-methyl-pyrazol-4-yl]pyrazolo[1,5-a]pyrimidine-3-carboxamide]	9.37	9.38	7.24	–
CN1CCCC1Cn1cc(NC(=O)c2cnn3cccnc23)c(-c2cc(Oc3cccc(C4CNCCO4)c3)ccc2OC(F)F)n1 (racemic) [Example 41, N-[3-[2-(difluoromethoxy)-5-(3-morpholin-2-ylphenoxy)phenyl]-1-[[rac-(2R)-1-methylpyrrolidin-2-yl]methyl]pyrazol-4-yl]pyrazolo[1,5-a]pyrimidine-3-carboxamide]	8.85	8.36	6.68	–
